For orientation: inhibition means the percentage by which the read-out fell short of the control.

The test has as its target Mitogen-activated protein kinase 1 (Homo sapiens) (UniProt P28482). In words: total ERK1/2 protein level change, either direction, late-stage follow-up, counter-screen for KLF5 inhibitor project, cell-based, HCT116 colorectal carcinoma, chemiluminescent western blot (AID 588642). As to conditions: HCT116 ERK1/2 protein level, 24 h, at 10 µM, hits give high values.

The source made the active and inactive calls.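 Rule for the calls: active = MAPK1 kinase protein level shifted by at least 30% from solvent-only cells, either down or up; inactive = shift in protein level under 30% either way.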

Sequence of Mitogen-activated protein kinase 1 (Homo sapiens) (P28482 whole entry, looked up): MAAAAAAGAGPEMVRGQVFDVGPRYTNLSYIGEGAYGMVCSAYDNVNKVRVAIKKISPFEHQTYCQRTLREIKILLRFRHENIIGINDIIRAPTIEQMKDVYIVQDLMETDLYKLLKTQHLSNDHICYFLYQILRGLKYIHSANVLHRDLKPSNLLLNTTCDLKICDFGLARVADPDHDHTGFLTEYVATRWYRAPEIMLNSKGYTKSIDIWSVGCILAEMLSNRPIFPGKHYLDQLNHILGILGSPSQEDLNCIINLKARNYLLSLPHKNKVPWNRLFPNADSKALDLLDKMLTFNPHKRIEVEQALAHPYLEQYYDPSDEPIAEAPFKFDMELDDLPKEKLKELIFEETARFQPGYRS

Consider `CN(C(=O)CNC(=O)/C=C/c1cccc(Cl)c1)C1CCS(=O)(=O)CC1`, for which the inhibition is 3.03% (inactive).
For `CN(C(=O)COC(=O)/C=C/c1cccc([N+](=O)[O-])c1)C1CCS(=O)(=O)C1` (stereo not drawn), the inhibition was 4.62% (inactive).
As for `CN(C(=O)CNC(=O)/C=C/c1cccc(Cl)c1)C1CCS(=O)(=O)C1` (stereo not drawn), the figure is 5.48% (inactive).

For the origin of these results see PubChem BioAssay AID588642 (The Scripps Research Institute Molecular Screening Center, 2011).
